The target in series [1] is Poly [ADP-ribose] polymerase 1 (Mus musculus, UniProt P11103). As to the kind of experiment: Inhibition of mouse recombinant PARP-1 incubated for 60 mins.
Series [2] has as its target Poly [ADP-ribose] polymerase 1 (Bos taurus, UniProt P18493). As to the kind of experiment: Inhibition of calf thymus PARP-1.
A short description of series [3]: Inhibition of calf thymus […]. More on the design: species or system Bos taurus.
In series [4] the target is T1, Poly [ADP-ribose] polymerase 2 (Homo sapiens, UniProt Q9UGN5). As to the kind of experiment: Inhibition of human PARP-2 incubated for 18 to 20 hrs by scintillation proximity assay. For orientation: SPA uses beads or plates that emit light when radiolabelled molecules are held near them.
Series [5] has as its target T2, Poly [ADP-ribose] polymerase 1 (Homo sapiens, UniProt P09874). As to the kind of experiment: Inhibition of human PARP-1 using histone as substrate incubated for 16 hrs by ELISA assay. (In general: In an ELISA, binding on a coated surface is turned into a signal by an enzyme label.)
The species entered for another series is Homo sapiens. As to the kind of experiment: Selectivity index, ratio of IC50 of human PARP-1 to IC50 of human PARP-2.
Series [6] has as its target T2, Poly [ADP-ribose] polymerase 1. The series can be described thus: Inhibition of PARP-1 (unknown origin).
The target of series [7] is T1, Poly [ADP-ribose] polymerase 2. As to the kind of experiment: Inhibition of PARP-2 (unknown origin).
A further series concerns U-251. As to the kind of experiment: Inhibition of human PARP expressed in U-251 cells at 3 uM relative to control. The series is classed as cell-based.
Series [8] concerns the target T2, Poly [ADP-ribose] polymerase 1. The series can be described thus: Inhibition of PARP-1 (unknown origin) assessed as inhibition constant.
Series [9] has the same target. The series can be described thus: Inhibition of human PARP-1.
Series [10] can be described thus: Oral bioavailability in rat. The series is classed as ADME, organism-based. As to conditions: in vivo.
Series [11] is described as follows: Half life in rat. In kind it is ADME. Particulars: in vivo.

Nine molecules from ChEMBL document CHEMBL5252527, “An Update on Poly(ADP-ribose)polymerase-1 (PARP-1) Inhibitors: Opportunities and Challenges in Cancer Therapy” (J Med Chem, 2016) can be followed below.

T1 sequence (Q9UGN5 whole entry): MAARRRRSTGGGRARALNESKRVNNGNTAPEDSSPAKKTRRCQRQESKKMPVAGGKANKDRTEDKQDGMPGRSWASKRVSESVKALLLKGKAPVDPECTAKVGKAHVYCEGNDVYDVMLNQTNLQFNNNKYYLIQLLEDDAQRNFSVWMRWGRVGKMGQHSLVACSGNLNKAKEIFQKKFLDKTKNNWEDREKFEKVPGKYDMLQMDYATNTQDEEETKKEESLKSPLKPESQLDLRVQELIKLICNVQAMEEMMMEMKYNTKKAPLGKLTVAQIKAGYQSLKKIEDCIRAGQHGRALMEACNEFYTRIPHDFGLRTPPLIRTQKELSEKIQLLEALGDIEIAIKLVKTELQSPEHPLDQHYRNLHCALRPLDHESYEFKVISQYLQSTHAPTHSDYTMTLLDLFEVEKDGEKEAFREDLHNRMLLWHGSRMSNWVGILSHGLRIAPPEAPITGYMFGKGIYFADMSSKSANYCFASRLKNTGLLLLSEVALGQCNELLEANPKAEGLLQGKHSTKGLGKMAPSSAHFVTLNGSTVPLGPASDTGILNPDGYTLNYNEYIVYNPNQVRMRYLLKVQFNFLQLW
T2 sequence (P09874 whole entry): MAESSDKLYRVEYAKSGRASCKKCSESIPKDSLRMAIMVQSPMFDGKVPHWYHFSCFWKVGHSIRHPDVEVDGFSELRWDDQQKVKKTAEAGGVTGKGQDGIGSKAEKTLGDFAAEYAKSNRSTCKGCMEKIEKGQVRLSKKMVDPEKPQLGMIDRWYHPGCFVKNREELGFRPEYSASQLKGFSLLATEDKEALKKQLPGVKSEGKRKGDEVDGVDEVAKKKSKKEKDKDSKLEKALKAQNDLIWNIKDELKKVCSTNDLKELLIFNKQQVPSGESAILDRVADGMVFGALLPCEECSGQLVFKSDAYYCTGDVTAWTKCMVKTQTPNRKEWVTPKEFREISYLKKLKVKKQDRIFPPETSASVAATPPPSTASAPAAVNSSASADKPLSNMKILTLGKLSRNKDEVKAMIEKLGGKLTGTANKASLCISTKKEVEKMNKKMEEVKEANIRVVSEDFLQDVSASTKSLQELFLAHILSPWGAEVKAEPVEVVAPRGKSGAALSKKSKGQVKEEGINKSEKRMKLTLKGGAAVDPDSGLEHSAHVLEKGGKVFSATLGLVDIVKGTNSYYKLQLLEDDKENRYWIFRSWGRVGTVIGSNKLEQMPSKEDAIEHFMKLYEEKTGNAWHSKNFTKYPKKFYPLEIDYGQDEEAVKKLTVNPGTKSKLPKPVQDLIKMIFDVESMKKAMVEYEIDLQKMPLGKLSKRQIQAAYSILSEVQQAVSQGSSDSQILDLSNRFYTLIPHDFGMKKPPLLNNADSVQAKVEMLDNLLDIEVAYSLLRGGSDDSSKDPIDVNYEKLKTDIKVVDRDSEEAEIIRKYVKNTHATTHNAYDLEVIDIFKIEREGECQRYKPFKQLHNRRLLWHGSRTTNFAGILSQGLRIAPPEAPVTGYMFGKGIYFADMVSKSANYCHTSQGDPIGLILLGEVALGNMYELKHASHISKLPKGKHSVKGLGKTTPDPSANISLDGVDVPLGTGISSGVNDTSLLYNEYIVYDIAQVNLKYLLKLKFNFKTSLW
Chain of Poly [ADP-ribose] polymerase 1 (Mus musculus, UniProt P11103) (P11103 whole entry): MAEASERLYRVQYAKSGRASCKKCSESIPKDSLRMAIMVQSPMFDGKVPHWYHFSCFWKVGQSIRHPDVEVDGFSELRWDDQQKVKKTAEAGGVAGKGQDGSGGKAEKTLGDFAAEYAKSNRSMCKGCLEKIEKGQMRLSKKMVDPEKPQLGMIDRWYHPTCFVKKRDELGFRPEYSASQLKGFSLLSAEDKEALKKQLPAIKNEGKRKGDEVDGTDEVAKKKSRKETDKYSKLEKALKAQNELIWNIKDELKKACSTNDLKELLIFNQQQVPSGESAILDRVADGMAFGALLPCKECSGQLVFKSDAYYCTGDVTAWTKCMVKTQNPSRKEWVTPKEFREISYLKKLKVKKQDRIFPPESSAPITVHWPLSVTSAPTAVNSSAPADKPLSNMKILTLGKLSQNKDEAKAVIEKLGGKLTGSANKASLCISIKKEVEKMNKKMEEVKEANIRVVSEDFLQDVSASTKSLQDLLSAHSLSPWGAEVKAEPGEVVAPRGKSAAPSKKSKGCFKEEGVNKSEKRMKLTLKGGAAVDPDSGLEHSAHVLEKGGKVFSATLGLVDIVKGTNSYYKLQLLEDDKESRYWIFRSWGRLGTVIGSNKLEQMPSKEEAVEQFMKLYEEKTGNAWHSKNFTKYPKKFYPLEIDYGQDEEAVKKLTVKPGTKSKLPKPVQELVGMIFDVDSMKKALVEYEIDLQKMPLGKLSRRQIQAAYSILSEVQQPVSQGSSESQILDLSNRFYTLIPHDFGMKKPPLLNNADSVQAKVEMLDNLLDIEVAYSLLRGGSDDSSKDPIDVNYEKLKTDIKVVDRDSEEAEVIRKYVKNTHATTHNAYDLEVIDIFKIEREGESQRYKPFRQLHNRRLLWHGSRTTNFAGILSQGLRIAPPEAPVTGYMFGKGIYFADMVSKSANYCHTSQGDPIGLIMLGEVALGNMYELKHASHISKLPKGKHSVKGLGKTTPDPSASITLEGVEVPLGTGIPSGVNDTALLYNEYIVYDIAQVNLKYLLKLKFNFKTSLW
Chain of Poly [ADP-ribose] polymerase 1 (Bos taurus, UniProt P18493) (P18493 whole entry): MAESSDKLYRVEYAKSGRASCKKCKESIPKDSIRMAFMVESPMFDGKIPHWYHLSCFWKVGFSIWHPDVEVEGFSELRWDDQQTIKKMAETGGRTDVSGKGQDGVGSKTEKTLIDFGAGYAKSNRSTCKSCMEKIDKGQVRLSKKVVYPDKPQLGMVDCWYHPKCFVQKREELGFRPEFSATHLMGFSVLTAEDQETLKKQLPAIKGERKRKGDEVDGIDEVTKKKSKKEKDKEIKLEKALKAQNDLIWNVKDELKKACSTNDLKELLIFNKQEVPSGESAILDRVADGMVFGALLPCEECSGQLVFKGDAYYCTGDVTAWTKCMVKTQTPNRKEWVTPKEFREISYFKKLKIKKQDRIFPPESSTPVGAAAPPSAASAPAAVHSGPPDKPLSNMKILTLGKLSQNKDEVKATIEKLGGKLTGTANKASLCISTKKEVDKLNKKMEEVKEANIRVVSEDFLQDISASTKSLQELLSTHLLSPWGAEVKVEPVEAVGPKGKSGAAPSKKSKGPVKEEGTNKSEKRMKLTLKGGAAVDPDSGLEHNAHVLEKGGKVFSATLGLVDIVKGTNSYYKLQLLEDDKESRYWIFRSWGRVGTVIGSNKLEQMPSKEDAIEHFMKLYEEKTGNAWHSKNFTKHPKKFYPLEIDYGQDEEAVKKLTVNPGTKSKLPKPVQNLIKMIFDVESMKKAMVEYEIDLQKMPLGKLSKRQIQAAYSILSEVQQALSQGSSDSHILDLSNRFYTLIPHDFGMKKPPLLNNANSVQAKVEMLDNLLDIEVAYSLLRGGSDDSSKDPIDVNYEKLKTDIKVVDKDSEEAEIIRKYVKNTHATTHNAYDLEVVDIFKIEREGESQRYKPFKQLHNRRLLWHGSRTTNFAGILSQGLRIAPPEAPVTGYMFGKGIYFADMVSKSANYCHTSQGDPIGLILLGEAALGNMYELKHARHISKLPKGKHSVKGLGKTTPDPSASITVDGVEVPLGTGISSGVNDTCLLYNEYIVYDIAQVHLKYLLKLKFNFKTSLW

For orientation: IC50 means the concentration needed to halve the response being measured. Take `O=C(Nc1cccc2c(=O)[nH]ccc12)c1ccccc1`: the IC50 in [1] turned out to be 1500 nM. Consider `Cc1cccc2c(=O)[nH]c(CCCN3CC=C(c4ccc(F)cc4)CC3)nc12`, for which the IC50 in [2] was determined as 16 nM; in series [3], 167 nM. In turn, `Cn1cccc1/C=C1\C(=O)NC(=O)c2ccccc21` had an IC50 in series [4] of 4000 nM. The molecule `CC(C)(C)[Si](C)(C)OCCCN1CCN(C(=O)c2cc(Cn3c(=O)[nH]c(=O)c4ccccc43)ccc2F)CC1=O` showed a half-maximal inhibitory concentration (IC50) in [5] of 1.29 nM. Moreover, in the series listed under Homo sapiens, the Ratio IC50 came to 8.

Regarding `COc1cccc2[nH]c3c4c(c5c(c3c12)C(=O)N(CN1CCN(C)CC1)C5=O)CCC4` [CEP-9722], the IC50 in series [6] amounted to 20 nM; in series [7], 6 nM.

Broadly, the inhibition is the share of the control response that was lost under treatment. A higher inhibition goes with a strong effect. The term Ki denotes a measure of affinity in units of concentration, obtained from inhibition or displacement. `O=c1[nH]nc2c3c(cccc13)Oc1ccc(CN3CCC(O)CC3)cc1-2` [E-7016] registered an inhibition with U-251 of 84%. For the same molecule, the Ki in [8] was 50 nM.

`NC(=O)c1ccc(I)c([N+](=O)[O-])c1` [INIPARIB]: the IC50 in series [9] was determined as 100000 nM. In turn, `C[C@]12CCCN1CC1=NNC(=O)c3cc(F)cc4[nH]c2c1c34` [PAMIPARIB] gave an IC50 in series [7] of 0.11 nM. One may read the bioavailability as the share of a dose that reaches the circulation, judged against a reference dose that is usually intravenous. A high value points to good availability. Regarding `Cn1ncnc1[C@H]1c2n[nH]c(=O)c3cc(F)cc(c23)N[C@@H]1c1ccc(F)cc1` [TALAZOPARIB], the bioavailability in series [10] is above 40%. The molecule further registered a t1/2 in series [11] of 40 h.
